Measured values reported in patent US20050187240A1, “Aaptamine and isoaaptamine and structural modifications thereof” (The Arizona Board of Regents, Acting for and on behalf of …, priority 2004, published 2005).
Read-outs that look alike come from different tables or passages of the source.

Assays:
[1] = tested on: murine P388 lymphocytic leukemia cell line; experiment: Cancer cell growth inhibition, murine P388 lymphocytic leukemia cell line; assay type: cell-based; details: for IC50: Mus musculus
Text: (§1) Evaluation of demethyloxyaaptamine (3), aaptamine (1), isoaaptamine (2) and hystatin 1 (11) against the Arizona State University Cancer Research Institute's human tumor cell line panel (Table 1) and the NCI 60-cell line human tumor screen were undertaken. (Boyd, M. R., Cancer: Principles and Practices of Oncology Updates; DeVita, et al., Eds; Lippincott: Philadelphia, 1989, Vol. 10, No. 3, pp. 1-12; Boyd, et al., Drug Development Research 1995, 34, 91-109; Boyd, M. R., et al. Cytotoxic Anticancer Drugs: Models and Concepts for Drug Discovery and Development; Valeriote, A., et al., Eds, Kluwer Academic Publishers: Amsterdam, 1992, pp. 11-34.)
(§2) Biology The cancer cell growth inhibitory properties were examined using the murine P388 lymphocytic leukemia cell line and a selection of human cancer cell lines.
(§3) All of the synthetic products were evaluated against a minipanel of human cancer cell lines, the murine P388 lymphocytic leukemia cell line and a selection of microorganisms.

[2] = tested on: lung NCI-H460; experiment: Cancer cell growth inhibition, lung NCI-H460; assay type: cell-based, human; details: Homo sapiens, lung NCI-H460
Text: as §1, §2, §3

[3] = tested on: colon KM 20L2; experiment: Cancer cell growth inhibition, colon KM 20L2; assay type: cell-based, human; details: Homo sapiens, colon KM 20L2
Text: as §1, §2, §3

[4] = tested on: pancreas BXPC-3; experiment: Cancer cell growth inhibition, pancreas BXPC-3; assay type: cell-based, human; details: Homo sapiens, pancreas BXPC-3
Protocol: as §2, §3

[5] = tested on: breast MCF-7; experiment: Cancer cell growth inhibition, breast MCF-7; assay type: cell-based, human; details: Homo sapiens, MCF7, breast MCF-7
Protocol: as §2, §3

[6] = tested on: CNS SF-268; experiment: Cancer cell growth inhibition, CNS SF-268; assay type: cell-based, human; details: Homo sapiens, CNS SF-268
Protocol: as §2, §3

[7] = tested on: prostrate DU-145; experiment: Cancer cell growth inhibition, prostate DU-145; assay type: cell-based, human; details: Homo sapiens
Protocol: as §2, §3

[8] = tested on: Cryptococcus neoformans; experiment: Broth microdilution susceptibility assay, Cryptococcus neoformans; assay type: cell-based; details: for Range of minimum inhibitory concentration: Table 6
[9] = tested on: Candida albicans; experiment: Broth microdilution susceptibility assay, Candida albicans; assay type: cell-based; details: for Range of minimum inhibitory concentration: Table 6
[10] = tested on: Staphylococcus aureus; experiment: Broth microdilution susceptibility assay, Staphylococcus aureus; assay type: cell-based; details: for Range of minimum inhibitory concentration: Table 6
[11] = tested on: Streptococcus pneumoniae; experiment: Broth microdilution susceptibility assay, Streptococcus pneumoniae; assay type: cell-based; details: for Range of minimum inhibitory concentration: Table 6
[12] = tested on: Enterococcus faecalis; experiment: Broth microdilution susceptibility assay, Enterococcus faecalis; assay type: cell-based; details: for Range of minimum inhibitory concentration: Table 6
[13] = tested on: Micrococcus luteus; experiment: Broth microdilution susceptibility assay, Micrococcus luteus; assay type: cell-based; details: for Range of minimum inhibitory concentration: Table 6
[14] = tested on: Escherichia coli; experiment: Broth microdilution susceptibility assay, Escherichia coli; assay type: cell-based; details: for Range of minimum inhibitory concentration: Table 6
[15] = tested on: Enterobacter cloacae; experiment: Broth microdilution susceptibility assay, Enterobacter cloacae; assay type: cell-based; details: for Range of minimum inhibitory concentration: Table 6
[16] = tested on: Stenotrophomonas maltophilia; experiment: Broth microdilution susceptibility assay, Stenotrophomonas maltophilia; assay type: cell-based; details: for Range of minimum inhibitory concentration: Table 6
[17] = tested on: Neisseria gonorrhoeae; experiment: Broth microdilution susceptibility assay, Neisseria gonorrhoeae; assay type: cell-based; details: for Range of minimum inhibitory concentration: Table 6
[18] = target: T1, PKC alpha (Homo sapiens, UniProt P17252); experiment: Inhibition of PKC catalytic activity (peptide substrate phosphorylation); assay type: biochemical; details: 30 μM compound; 1 μM phorbol 12-myristate 13-acetate, 100 μg/ml phospholipid; mean±SEM, three experiments; read-out: percent inhibition of PKC catalytic activity
Text: We further evaluated the ability of the derivatives to inhibit PKC catalytic activity. […] Inhibition by 10c was 19.5±7.6% and inhibition by 4, 5, and 9a, b, c was 6% or less (all values are mean±SEM, three experiments). […] In both cases, the inhibition curves were steeper than predicted for a competitive inhibitor, consistent with a complicated mechanism of action (Hill coefficients for 10a and 10b of 1.5±0.1 and 2.0±0.5, respectively).

[19] = target: T1, PKC alpha; experiment: Inhibition of [3H]phorbol 12,13-dibutyrate binding to PKC alpha; details: 30 μM compound; read-out: inhibition of [3H]phorbol 12,13-dibutyrate binding to PKC alpha
Protocol: Isoaaptamine (2) and derivatives 4, 5, 7, 8, and 14-18 were evaluated as ligands for PKC, based on the initial report of activity for isoaaptamine (Patil, et al., PCT Int. Appl. WO 95/0584 March 1995). Activity was measured at 30 μM compound using inhibition of [^3H-20]phorbol 12,13-dibutyrate binding to PKC alpha as described previously (Kazanietz, M. G., et al., Molecular Pharmacol., 1993, 44, 298). Assays were carried out with triplicate measurements in either single or triplicate experiments, depending on the compound.
Compounds 4, 5, 9a-c, and 10a-d were evaluated as ligands for PKC, based on the initial report of activity for isoaaptamine. Activity was measured at 30 μM compound using inhibition of [20-^3H]phorbol 12,13-dibutyrate binding to PKC alpha as described previously (Kazanietz, M. G., et al., Characterization of Ligand and Substrate Specificity for the Calcium-Dependent and Calcium-Independent Protein Kinase C Isoenzymes, Molecular Pharmacol. 1993, 44, 298-307). Assays were carried out with triplicate measurement in either single or triplicate experiments, depending on the compound. Inhibition by 9a and 9b was 6.4% and 9.2%, respectively. That by 10a, 10b, and 10d was 11.8%, 12.6%, and 16.0%, respectively. That by other derivatives was 5% or less. We conclude that these compounds show only very weak activity as ligands for PKC.

[20] = Table 5, leukemia P388, read-out: Cancer Cell Line Results ED50
[21] = Table 5, read-out: Cancer Cell Line Results ED50
[22] = DU-145, Table 5, prostate DRU-145, read-out: Cancer Cell Line Results ED50
[23] = Table 3, read-out: Cancer cell growth inhibitory ED50
[24] = Table 4, read-out: Range of minimum inhibitory concentration

| Compound | IC50 [1, 20] [mg/L] | IC50 [2, 21] [mg/L] | IC50 [3, 21] [mg/L] | IC50 [4, 21] [mg/L] | IC50 [5, 21] [mg/L] | IC50 [6, 21] [mg/L] | IC50 [7, 22] [mg/L] | Range of minimum inhibitory concentration [8] | Range of minimum inhibitory concentration [9] | Range of minimum inhibitory concentration [10] | Range of minimum inhibitory concentration [11] | Range of minimum inhibitory concentration [12] | Range of minimum inhibitory concentration [13] [mg/L] | Range of minimum inhibitory concentration [14] | Range of minimum inhibitory concentration [15] | Range of minimum inhibitory concentration [16] | Range of minimum inhibitory concentration [17] | inhibition at 30 µM [18] [%] | also measured |
| --- | --- | --- | --- | --- | --- | --- | --- | --- | --- | --- | --- | --- | --- | --- | --- | --- | --- | --- | --- |
| COc1cc(CN2C=Cc3cc(OC)c(OC)c4c3c2cc[n+]4Cc2cc(OC)c(OC)c(OC)c2)cc(OC)c1OC.[Br-] [Compound 10c, 8,9-Dimethoxy-1,4-bis-(3,4,5-trimethoxy-benzyl)-4H-benzo[de][1,6]-naphthyridin-1-ium bromide] | > 10 | > 10 | > 10 | > 10 | > 10 | > 10 | > 10 | * (no inhibition at 64 μg/mL) | * (no inhibition at 64 μg/mL) | * (no inhibition at 64 μg/mL) | * (no inhibition at 64 μg/mL) | * (no inhibition at 64 μg/mL) | 64 | * (no inhibition at 64 μg/mL) | * (no inhibition at 64 μg/mL) | * (no inhibition at 64 μg/mL) | * (no inhibition at 64 μg/mL) | 19.5 ± 7.6 | melting point: 116 to 118 °C |
| COc1ccc(C[n+]2ccc3c4c(cc(OC)c(OC)c42)C=CN3Cc2cc(OC)c(OC)c(OC)c2)cc1O.[Br-] [Compound 10d, 8,9-Dimethoxy-1-(3-hydroxy-4-methoxybenzyl)-4-(3,4,5-trimethoxybenzyl)-4H-benzo[de][1,6]naphthyridin-1-ium bromide] | > 10 | > 10 | > 10 | > 10 | > 10 | > 10 | > 10 | * (no inhibition at 64 μg/mL) | * (no inhibition at 64 μg/mL) | * (no inhibition at 64 μg/mL) | * (no inhibition at 64 μg/mL) | * (no inhibition at 64 μg/mL) | 8 to 16 | * (no inhibition at 64 μg/mL) | * (no inhibition at 64 μg/mL) | * (no inhibition at 64 μg/mL) | * (no inhibition at 64 μg/mL) | 43.2 ± 10.1 | inhibition at 30 µM [19]: 16% |
| COC1=Cc2ccnc3ccnc(c23)C1(OC)OC [Compound 12] | – | – | – | – | – | – | – | – | – | – | – | – | – | – | – | – | – | – | P388 ED50 ([1]; murine P388): 59 mg/L |
| COc1ccc(CN2C=Cc3cc(OC)c(OC)c4c3c2cc[n+]4C)cc1.[I-] [Compound 17, 1-Methyl-4-(4-methoxybenzyl)-8,9-dimethoxy-4H-benzo[de][1,6]-naphthyridin-1-ium iodide] | – | – | – | – | – | – | – | – | – | – | – | – | – | – | – | – | – | – | IC50 ([1]; P388, Table 3, leukemia P-388, read-out: Cancer cell growth inhibitory ED50): 3.1 mg/L; IC50 [2, 23]: 4.6 mg/L; IC50 [3, 23]: 5.4 mg/L; IC50 [4, 23]: 7 mg/L; IC50 [5, 23]: 8 mg/L; IC50 [6, 23]: 5.9 mg/L; IC50 ([7]; Table 3, prostrate DU-145, read-out: Cancer cell growth inhibitory ED50): 7.5 mg/L; MIC [8, 24]: > 64 mg/L; MIC [9, 24]: > 64 mg/L; MIC [10, 24]: > 64 mg/L; MIC [11, 24]: > 64 mg/L; MIC [12, 24]: > 64 mg/L; MIC [13, 24]: 4 to 8 mg/L; MIC [14, 24]: > 64 mg/L; MIC [15, 24]: > 64 mg/L; MIC ([16]; Table 4, Stenotrophomonas maltophil, read-out: Range of minimum inhibitory concentration): > 64 mg/L; MIC [17, 24]: 64 mg/L |
